In brackets after ≈: the same amount, converted by molar mass. Like-named read-outs stand apart in the source and are kept apart here.
Legend:
[1] = test system: Candida albicans ATCC MYA-2876; assay: Minimal inhibitory concentration (MIC) test on fungal growth (CLSI M27, yeasts); format: cell-based; conditions: for MIC: Candida albicans, read-out: MIC Candida albicans ATCC MYA-2876
Outline: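 Broth microdilution followed CLSI M27 in RPMI1640 buffered with 0.165 M MOPS, pH 7.0, with a final inoculum of 500–2500 CFU/mL. Eleven 2-fold compound concentrations were tested, and plates were incubated 24 h at 35 °C. MIC was the lowest concentration giving 50% growth inhibition, read visually with optional OD530 assistance.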

[2] = test system: Aspergillus fumigatus ATCC MYA-4609; assay: Minimal inhibitory concentration (MIC) test on fungal growth (CLSI M38, Aspergillus); format: cell-based; conditions: for MIC: Aspergillus fumigatus, read-out: MIC Aspergillus fumigatus ATCC MYA-4609
Procedure: • RPMI1640 medium: Brand: Gibco, article number: 31800-014 • Sabouraud dextrose agar (SDA): Brand: Hope Bio, article number: HB0253-81 • Voriconazole: Brand: Adamas, article number: 22105A • Amphotericin B: Brand: AbCam, article number: ab141199
MIC test was conducted in accordance with the guidelines and requirements of CLSI M27 (for yeasts) and M38 (for Aspergillus).
Strain preparation: The strains were inoculated 1 day in advance by streaking on SDA plates with glycerol strains stored at −80° C. The strains were cultured at 35° C. and 40 to 60% humidity for 18 to 24 hours. Streak inoculation of Aspergillus fumigatus and Cryptococcus neoformans was required to be done 3 days and 2 days in advance, respectively.
Preparation of culture medium and compounds: The liquid culture medium RPMI was prepared with pure water, and 0.165 mol/L MOPS was added to adjust the pH to 7.0. The mixture was filtered with a 0.22 μm-membrane filter, sterilized, and stored at 4° C. (no more than 3 months). 0.85% physiological saline was sterilized at 121° C. for 30 min and then stored at room temperature (no more than 1 week). The compounds were dissolved in DMSO to 12.8 mg/mL and stored at −20° C.
For Aspergillus, 5 mL of physiological saline was added to cover the mycelium, and the spores were gently scraped off with a spreader. The spore suspension was then transferred to a sterile test tube. An appropriate amount of spore suspension was taken and counted under a microscope using a hemocytometer. Spore concentration was adjusted to approximately 0.4 to 5×10^4 spores/mL using RPMI1640 medium.
The compound was diluted to the highest 800 μg/mL (or 400 μg/mL) with DMSO, and a 10-step 2-fold gradient dilution was performed, resulting in 11 concentrations. 2 μL of the gradient-diluted compound was transferred to the corresponding wells of a 96-well plate, and then 198 μL of the inoculum was transferred to the test plate. The plate was incubated at 35° C. for 24 hours (Aspergillus fumigatus and Cryptococcus neoformans were incubated for 48 and 72 hours, respectively).
After the incubation, the growth of the fungi was visually observed. The lowest concentration of the compound that inhibited the growth of yeast by 50% (inhibited Aspergillus by 100%) was defined as the minimum inhibitory concentration (MIC, μg/mL). A magnifying glass or reading at OD530 nm could be used to assist in determining the MIC. Photos were taken of the test plates for record keeping.

[3] = lowest concentration inhibiting growth of yeast by 50%, 35° C., 24 hours, RPMI1640
[4] = lowest concentration inhibiting Aspergillus by 100%, 35° C., 48 hours, RPMI1640

SMILES	MIC [1, 3]	MIC [2, 4]	further results
CC(C)(O)COc1ccc(C23CC(C(F)(F)[C@](O)(Cn4cncn4)c4ccc(F)cc4F)(C2)C3)cc1 [Compound 37A]	≤ 0.0039 µg/mL	1 µg/mL (≈ 1.98 µM)	
OCC(F)(F)COc1ccc(C23CC(C(F)(F)C(O)(Cn4cnnn4)c4ccc(F)cc4F)(C2)C3)cc1 (centres unmarked) [Compound 50]	0.016 µg/mL (≈ 0.0303 µM)	4 µg/mL (≈ 7.57 µM)	
OC(Cn1cnnn1)(c1ccc(F)cc1F)C(F)(F)C12CC(c3ccc(OCC(F)(F)F)cc3)(C1)C2 (centres unmarked) [Compound 3]	0.03 µg/mL (≈ 0.0581 µM)	2 µg/mL (≈ 3.87 µM)	
O[C@@](Cn1cnnn1)(c1ccc(F)cc1F)C(F)(F)C12CC(c3ccc(COC(F)F)cc3)(C1)C2 (stereo in doubt) [Compound 159A]	≤ 0.0039 µg/mL	2 µg/mL (≈ 4.01 µM)	
OC(Cn1cncn1)(c1ccc(F)cc1F)C(F)(F)C12CC(c3ccc(OC(F)F)cc3)(C1)C2 (centres unmarked) [Compound 81]	≤ 0.0039 µg/mL	1 µg/mL (≈ 2.07 µM)	
OC1(COc2ccc(C34CC(C(F)(F)C(O)(Cn5cnnn5)c5ccc(F)cc5F)(C3)C4)cc2)CC(F)(F)C1 (centres unmarked) [Compound 149]	≤ 0.0039 µg/mL	8 µg/mL (≈ 14.4 µM)	
CNC(=O)COc1ccc(C23CC(C(F)(F)C(O)(Cn4cncn4)c4ccc(F)cc4F)(C2)C3)cc1 (centres unmarked) [Compound 35]	≤ 0.0039 µg/mL	2 µg/mL (≈ 3.96 µM)	
O[C@@](Cn1cnnn1)(c1ccc(F)cc1F)C(F)(F)C12CC(c3ccc(O[C@H]4CCOC4)cc3)(C1)C2 [Compound 41A]			MIC Candida albicans ATCC MYA-2876 [1, 3]: ≤0.0039 µg/mL; MIC Aspergillus fumigatus ATCC MYA-4609 [2, 4]: 8 µg/mL (≈ 15.9 µM)
O[C@@](Cn1cnnn1)(c1ccc(F)cc1F)C(F)(F)C12CC(c3ccc(O[C@@H]4CCOC4)cc3)(C1)C2 [Compound 40A]			MIC Candida albicans ATCC MYA-2876 [1, 3]: ≤0.0039 µg/mL; MIC Aspergillus fumigatus ATCC MYA-4609 [2, 4]: 4 µg/mL (≈ 7.93 µM)
COc1ccc(C23CC(C(F)(F)C(O)(Cn4cnnn4)c4ccc(F)cc4F)(C2)C3)cc1 (centres unmarked) [Compound 1]	0.015 µg/mL (≈ 0.0335 µM)	8 µg/mL (≈ 17.8 µM)	
O[C@@H](COc1ccc(C23CC(C(F)(F)C(O)(Cn4cnnn4)c4cc(F)ccc4F)(C2)C3)cc1)C(F)(F)F (stereo in doubt) [Compound 166]	0.06 µg/mL (≈ 0.11 µM)	8 µg/mL (≈ 14.6 µM)	
O[C@H](COc1ccc(C23CC(C(F)(F)[C@](O)(Cn4cncn4)c4ccc(F)cc4F)(C2)C3)cc1)C(F)(F)F (relative stereo) [Compound 132A]	≤ 0.0039 µg/mL	0.5 µg/mL (≈ 0.917 µM)	
CS(=O)(=O)COc1ccc(C23CC(C(F)(F)C(O)(Cn4cnnn4)c4ccc(F)cc4F)(C2)C3)cc1 (centres unmarked) [Compound 131]	0.0078 µg/mL (≈ 0.0148 µM)	8 µg/mL (≈ 15.2 µM)	
N#Cc1ccc(C23CC(C(F)(F)[C@](O)(Cn4cncn4)c4ccc(F)cc4F)(C2)C3)cc1 [Compound 27A]	≤ 0.0039 µg/mL	0.5 µg/mL (≈ 1.13 µM)	
O[C@](Cn1cncn1)(CC12CC(c3ccc(OCC(F)(F)F)cc3)(C1)C2)c1ccc(F)cc1F [Compound 49A]	≤ 0.0039 µg/mL	0.5 µg/mL (≈ 1.04 µM)	
O[C@@](Cn1cnnn1)(c1ccc(F)cc1F)C(F)(F)C12CC(c3ccc(OCC(F)(F)F)cc3)(C1)C2 [Compound 3A]	≤ 0.0039 µg/mL	1 µg/mL (≈ 1.94 µM)	
O[C@H](COc1ccc(C23CC(C(F)(F)C(O)(Cn4cnnn4)c4cc(F)ccc4F)(C2)C3)cc1)C(F)(F)F (stereo in doubt) [Compound 165]	0.03 µg/mL (≈ 0.0549 µM)	4 µg/mL (≈ 7.32 µM)	
OC(Cn1cncn1)(CC12CC(c3ccc(OCC(F)(F)F)cc3)(C1)C2)c1ccc(F)cc1F (centres unmarked) [Compound 49]	0.0078 µg/mL (≈ 0.0163 µM)	1 µg/mL (≈ 2.09 µM)	
OC(COc1ccc(C23CC(C(F)(F)C(O)(Cn4cnnn4)c4ccc(F)cc4F)(C2)C3)cc1)C1CC1 (centres unmarked) [Compound 144]	0.0078 µg/mL (≈ 0.015 µM)	8 µg/mL (≈ 15.4 µM)	

SMILES	MIC [1, 3]	MIC [2, 4]	further results
O=C(COc1ccc(C23CC(C(F)(F)C(O)(Cn4cncn4)c4ccc(F)cc4F)(C2)C3)cc1)NC1CC1 (centres unmarked) [Compound 129]	0.0078 µg/mL (≈ 0.0147 µM)	4 µg/mL (≈ 7.54 µM)	
O[C@@](Cn1cnnn1)(c1ccc(F)cc1F)C(F)(F)C12CC(c3ccc(OCC4(F)COC4)cc3)(C1)C2 [Compound 121A]			MIC Candida albicans ATCC MYA-2876 [1, 3]: ≤0.0039 µg/mL; MIC Aspergillus fumigatus ATCC MYA-4609 [2, 4]: 4 µg/mL (≈ 7.66 µM)
OC(Cn1cncn1)(c1ccc(F)cc1F)C(F)(F)C12CC(c3ccc(OCC(F)F)cc3)(C1)C2 (centres unmarked) [Compound 23]	≤ 0.0039 µg/mL	1 µg/mL (≈ 2.01 µM)	
COc1ccc(C23CC(C(F)(F)[C@](O)(Cn4cnnn4)c4ccc(F)cc4F)(C2)C3)cc1 [Compound 1A]			MIC Candida albicans ATCC MYA-2876 [1, 3]: 0.0078 µg/mL (≈ 0.0174 µM); MIC Aspergillus fumigatus ATCC MYA-4609 [2, 4]: 4 µg/mL (≈ 8.92 µM)
O[C@H](COc1ccc(C23CC(C(F)(F)[C@](O)(Cn4cnnn4)c4ccc(F)cc4F)(C2)C3)cc1)C(F)(F)F [Compound 51A]	≤ 0.0039 µg/mL	1 µg/mL (≈ 1.83 µM)	
N#Cc1ccc(C23CC(C(F)(F)C(O)(Cn4cncn4)c4ccc(F)cc4F)(C2)C3)cc1 (centres unmarked) [Compound 27]	≤ 0.0039 µg/mL	1 µg/mL (≈ 2.26 µM)	
OC(COc1ccc(C23CC(C(F)(F)C(O)(Cn4cncn4)c4ccc(F)cc4F)(C2)C3)cn1)C(F)(F)F (centres unmarked) [Compound 98]			MIC Candida albicans ATCC MYA-2876 [1, 3]: ≤0.0039 µg/mL; MIC Aspergillus fumigatus ATCC MYA-4609 [2, 4]: 2 µg/mL (≈ 3.66 µM)
CS(=O)(=O)COc1ccc(C23CC(C(F)(F)[C@](O)(Cn4cnnn4)c4ccc(F)cc4F)(C2)C3)cc1 (stereo in doubt) [Compound 131A]	≤ 0.0039 µg/mL	4 µg/mL (≈ 7.6 µM)	
N#Cc1ccc(C23CC(C(F)(F)C(O)(Cn4cncn4)c4cc(F)ccc4F)(C2)C3)cc1 (centres unmarked) [Compound 29]	≤ 0.0039 µg/mL	2 µg/mL (≈ 4.52 µM)	
Oc1ccc(C23CC(C(F)(F)C(O)(Cn4cncn4)c4ccc(F)cc4F)(C2)C3)cc1 (centres unmarked) [Compound 21]	≤ 0.0039 µg/mL	2 µg/mL (≈ 4.61 µM)	
O[C@@](Cn1cncn1)(c1ccc(F)cc1F)C(F)(F)C12CC(C1)C2 [Compound 10A]	≤ 0.0039 µg/mL	1 µg/mL (≈ 2.93 µM)	
N#Cc1ccc(C23CC(C(F)(F)[C@](O)(Cn4cncn4)c4cc(F)ccc4F)(C2)C3)cc1 [Compound 29A]	≤ 0.0039 µg/mL	1 µg/mL (≈ 2.26 µM)	
OC(COc1ccc(C23CC(C(F)(F)C(O)(Cn4cnnn4)c4ccc(F)cc4F)(C2)C3)cc1)CC(F)(F)F (centres unmarked) [Compound 142]			MIC Candida albicans ATCC MYA-2876 [1, 3]: 0.0078 µg/mL (≈ 0.0139 µM); MIC Aspergillus fumigatus ATCC MYA-4609 [2, 4]: 8 µg/mL (≈ 14.3 µM)
CC(C)(O)COc1ccc(C23CC(C(F)(F)C(O)(Cn4cncn4)c4ccc(F)cc4F)(C2)C3)cc1 (centres unmarked) [Compound 37]	≤ 0.0039 µg/mL	2 µg/mL (≈ 3.96 µM)	
Oc1ccc(C23CC(C(F)(F)[C@](O)(Cn4cncn4)c4ccc(F)cc4F)(C2)C3)cc1 [Compound 21A]	≤ 0.0039 µg/mL	1 µg/mL (≈ 2.31 µM)	
OC(Cn1cnnn1)(c1ccc(F)cc1F)C(F)(F)C12CC(c3ccc(OCCN4CCOCC4)cc3)(C1)C2 (centres unmarked) [Compound 65]			MIC ([1]; 24 h): 0.0078 µg/mL (≈ 0.0142 µM); MIC ([2]; 48 h): 32 µg/mL (≈ 58.4 µM)
OC(COc1ccc(C23CC(C(F)(F)C(O)(Cn4cnnn4)c4ccc(F)cc4F)(C2)C3)cc1)C(F)(F)F (centres unmarked) [Compound 51]	0.0078 µg/mL (≈ 0.0143 µM)	4 µg/mL (≈ 7.32 µM)	
O[C@H](COc1ccc(C23CC(C(F)(F)[C@](O)(Cn4cnnn4)c4ccc(F)cc4F)(C2)C3)cc1)C1CC1 (relative stereo) [Compound 144A]	≤ 0.0039 µg/mL	2 µg/mL (≈ 3.86 µM)	

— patent US20240228446A1, “PREPARATION METHOD FOR BICYCLIC COMPOUND AND APPLICATION AS ANTIFUNGAL AGENT” (priority 2021, published 2024)
